From ChEMBL document CHEMBL4354794, “Potential Anticancer Agents Characterized from Selected Tropical Plants” (J Nat Prod, 2019) come the findings set out here.

One data set deals with SK-OV-3. The data set can be described thus: Antiproliferative activity against human SKOV3 cells assessed as reduction in cell viability after 48 hrs by CCK8 assay. The note with it: SK-OV-3, 48 h. Type of data set: functional, cell-based. On the technique in general: Formazan colour is commonly taken as a measure of viable cells.
Data set [1] relates to OVCAR-3. The data set can be described thus: Antiproliferative activity against human OVCAR3 cells assessed as reduction in cell viability after 48 hrs by CCK8 assay. In kind it is functional, cell-based. The note with it: OVCAR-3, 48 h.
The test system of data set [2] is HT-29. The data set can be described thus: Antiproliferative activity against human HT-29 cells assessed as reduction in cell viability. In kind it is functional, cell-based.
For data set [3], the system named is OVCAR-3. The data set can be described thus: Antiproliferative activity against human OVCAR3 cells assessed as reduction in cell viability. In kind it is functional, cell-based.
The test system of a further data set is OVCAR-8. The data set can be described thus: Antiproliferative activity against human OVCAR8 cells assessed as reduction in cell viability. In kind it is functional, cell-based.
The subject of data set [4] is HT-29. The data set can be described thus: Antiproliferative activity against human HT-29 cells assessed as reduction in cell viability after 3 days by SRB assay. Type of data set: functional, cell-based. The note with it: HT-29, 72 h. (In general: The SRB assay estimates cell density from bound dye.)
The nature of data set [5]: Inhibition of chymotrypsin-like proteasome (unknown origin) using Suc-LLVY-AMC as substrate by fluorescence based assay. On the set-up: species or system Homo sapiens.
For a further data set, the system named is A549. The data set can be described thus: Antiproliferative activity against human A549 cells assessed as reduction in cell viability after 72 hrs by MTT assay. Type of data set: functional, cell-based. The note with it: A549, 72 h.
The next data set relates to HT-3. The data set can be described thus: Antiproliferative activity against human HT3 cells assessed as reduction in cell viability after 6 days by MTT assay. In kind it is functional, cell-based. The note with it: HT-3, 144 h.
A further data set concerns HeLa. The data set can be described thus: Antiproliferative activity against human HeLa cells assessed as reduction in cell viability. Type of data set: functional, cell-based.
Data set [6] relates to KB. The data set can be described thus: Antiproliferative activity against human KB/HeLa cells assessed as reduction in cell viability. Type of data set: functional, cell-based.
The test system of a further data set is HEp-2. The data set can be described thus: Antiproliferative activity against human Hep2 cells by MTT assay. Type of data set: functional, cell-based.
The subject of data set [7] is KB. The data set can be described thus: Antiproliferative activity against human KB cells assessed as reduction in cell viability. Type of data set: functional, cell-based.
The subject of another data set is DU-145. The data set can be described thus: Antiproliferative activity against human DU145 cells assessed as reduction in viability after 48 hrs by MTTS assay. The note with it: DU-145, 48 h. Type of data set: functional, cell-based.
In another data set the test system is P388. The data set can be described thus: Antiproliferative activity against mouse P388 cells assessed as reduction in cell viability. The note with it: read-out: ED50 (the source's name). Type of data set: functional, cell-based.
A further data set has as its system Col2. The data set can be described thus: Antiproliferative activity against human Col2 cells assessed as reduction in cell viability. In kind it is functional, cell-based.
The test system of a further data set is A-431. The data set can be described thus: Antiproliferative activity against human A431 cells assessed as reduction in cell viability. Type of data set: functional. The note with it: read-out: ED50 (the source's name).
Data set [8] is described as follows: Antiproliferative activity against human BC1 cells assessed as reduction in cell viability. In kind it is functional. The note with it: read-out: ED50 (the source's name).
In a further data set the test system is KB-V1. The data set can be described thus: Antiproliferative activity against human KBV1 cells assessed as reduction in cell viability. Type of data set: functional. The note with it: read-out: ED50 (the source's name).
The nature of data set [9]: Antiproliferative activity against human U373 cells assessed as reduction in cell viability. In kind it is functional, U-373MG ATCC. The note with it: U373 MG, read-out: ED50 (the source's name).
The test system of the next data set is HT. The data set can be described thus: Antiproliferative activity against human HT cells assessed as reduction in cell viability. Type of data set: functional. The note with it: read-out: ED50 (the source's name).
Data set [10] concerns the target Tyrosine-protein phosphatase non-receptor type 1 (Homo sapiens, UniProt P18031). The data set can be described thus: Inhibition of recombinant human PTP1B (1 to 322 residues) expressed in Escherichia coli assessed as reduction in p-nitrophenol formation using p-nitrophenyl phosphate as substrate incubated for 30 mins by spectrophotometric method.
Data set [11] in a line: Toxicity in po dosed mouse. In kind it is organism-based. The note with it: in vivo.
The subject of the next data set is HL-60. The data set can be described thus: Antiproliferative activity against human HL60 cells assessed as reduction in cell viability after 3 days by trypan blue dye based hemocytometer counting method. In kind it is functional. The note with it: HL-60, 72 h.
The test system of a further data set is MDA-MB-231. The data set can be described thus: Antitumour activity against human MDA-MB-231 cells xenografted in Nu/Nu mouse at 10 mg/kg, iv for 6 times at 2 days interval. In kind it is functional. (In general: In xenograft studies the graft and the host belong to different species.)
Data set [12] can be described thus: Antiproliferative activity against mouse Sch10545 cells incubated for 72 hrs by resazurin dye based fluorescence assay. Type of data set: functional, cell-based.
A short description of data set [13]: Antiproliferative activity against human Ben-Men-1 cells incubated for 72 hrs by resazurin dye based fluorescence assay. Type of data set: functional, cell-based.
For another data set, the system named is WRL68. The data set can be described thus: Cytotoxicity against human WRL68 cells assessed as reduction in viability. In kind it is cell-based.
The test system of the next data set is SK-HEP1. The data set can be described thus: Cytotoxicity against human SKHEP1 cells assessed as reduction in viability. In kind it is functional, cell-based.

The structures appear in SMILES notation. pEC50, pIC50: −log10 of the molar value. Converted amounts (≈) assume the structure as drawn.

Chain of Tyrosine-protein phosphatase non-receptor type 1 (P18031 whole entry, the tested form may be a part): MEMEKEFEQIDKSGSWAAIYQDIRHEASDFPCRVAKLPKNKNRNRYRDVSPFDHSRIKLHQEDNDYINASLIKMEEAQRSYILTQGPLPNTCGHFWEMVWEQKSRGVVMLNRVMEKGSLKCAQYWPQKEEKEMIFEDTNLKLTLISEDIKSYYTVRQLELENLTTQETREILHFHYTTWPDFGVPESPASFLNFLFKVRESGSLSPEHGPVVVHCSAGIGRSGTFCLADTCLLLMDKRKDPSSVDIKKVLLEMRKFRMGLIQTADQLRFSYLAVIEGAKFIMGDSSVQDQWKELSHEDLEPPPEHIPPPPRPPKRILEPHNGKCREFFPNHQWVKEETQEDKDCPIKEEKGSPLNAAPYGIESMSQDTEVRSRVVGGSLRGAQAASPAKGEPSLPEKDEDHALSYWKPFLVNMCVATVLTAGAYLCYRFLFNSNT

Regarding `O=c1c2cc(O)ccc2oc2cccc(O)c12`, the negative-log IC50 (pIC50) in the data set with SK-OV-3 and in the data set on OVCAR-3 [1] was under 5.00 each time.

On to `COc1cc2c(O[C@@H]3O[C@H](CO)[C@@H]4OC(C)(C)O[C@@H]4[C@H]3O)c3c(c(-c4ccc5c(c4)OCO5)c2cc1OC)C(=O)OC3`, for which the pIC50 was 7.37 in the data set on HT-29 [2], 8.38 with OVCAR-3 [3] and 8.40 in the data set on OVCAR-8.

For the molecule `O=C1c2c(O)cc(O)cc2O[C@@H](c2ccc(O)cc2)[C@@H]1c1c(O)cc(O)c2c(=O)cc(-c3ccc(O)c(O)c3)oc12`, the pIC50 was under 5.00 with HT-29 [4] and 5.89 in [5].

With `COC[C@H]1O[C@@H](Oc2c3c(c(-c4ccc5c(c4)OCO5)c4cc(OC)c(OC)cc24)C(=O)OC3)[C@H](OC)[C@@H](OC)[C@H]1OC`, the pIC50 in the data set on A549 is 8.00.

Take `COC[C@H]1O[C@@H](Oc2c3c(c(-c4ccc5c(c4)OCO5)c4cc(OC)c(OC)cc24)C(=O)OC3)[C@H](OC)[C@@H](OC)[C@@H]1OC`: the negative logarithm of the IC50 (pIC50) in the data set with A549 was 7.30.

On to `COc1ccc(-c2c3c(c(O)c4cc5c(cc24)OCO5)COC3=O)cc1OC`, for which the IC50 in the data set with HT-3 is over 10 µg/mL.

Take `O=c1cc(-c2ccc(O)c(-c3c(O)cc(O)c4c(=O)cc(-c5ccc(O)cc5)oc34)c2)oc2cc(O)cc(O)c12` [AMENTOFLAVONE]: the pIC50 in the data set with HeLa was under 5.00.

On to `CC[C@H](CC[C@@H](C)[C@H]1CC[C@H]2[C@@H]3CC=C4C[C@@H](O)CC[C@]4(C)[C@H]3CC[C@]12C)C(C)C` [BETA-SITOSTEROL], for which the results for the negative-log IC50 (pIC50) with KB [6] and in the data set with HEp-2 were under 3.62 and 4.94, respectively. For the same molecule, the half-maximal inhibitory concentration (IC50) in the data set on KB [7] is over 10 µg/mL.

Turning to `C[C@]12CC[C@H]3[C@@H](CC[C@H]4C[C@@H](O)[C@H](O)C[C@@]43C=O)[C@@]1(O)CC[C@@H]2C1=CC(=O)OC1` [CALOTROPAGENIN], the pIC50 with DU-145 is 6.32.

As for `C[C@@H]1C[C@H](O)[C@]2(O)O[C@@H]3C[C@@]4(C=O)[C@@H](CC[C@@H]5[C@@H]4CC[C@]4(C)[C@@H](C6=CC(=O)OC6)CC[C@]54O)C[C@H]3O[C@@H]2O1` [CALOTROPIN], in the data set with DU-145, the pIC50 is 7.52.

For `COc1cc(-c2oc3cc(OC)c(OC)c(O)c3c(=O)c2OC)ccc1O` [CHRYSOSPLENOL B], the pEC50 in the data set on P388 was 5.81 to 6.48; in the data set with A-431, 5.81 to 6.48; in data set [8] it was 5.81 to 6.48; with KB [6] (read-out: ED50 (the source's name)) it was 5.81 to 6.48; in the data set with KB-V1, 5.67; in [9] it was 5.81 to 6.48. In the data set on HT, the pEC50 was 5.81 to 6.48. The IC50 in the data set with Col2 was over 10 µg/mL. The negative logarithm of the IC50 (pIC50) in the data set on HT-29 [2] was under 5.00.

With `CC(C)=CC[C@]12OC(C)(C)[C@H]3C[C@H](C=C4C(=O)c5c(O)cc(O)cc5O[C@@]431)C2=O` [COCHINCHINOXANTHONE], in [10], the pIC50 was 5.18.

For the molecule `C[C@H]1O[C@@H](O[C@H]2[C@@H](O)C[C@H](O[C@H]3[C@@H](O)C[C@H](O[C@H]4CC[C@@]5(C)[C@H](CC[C@@H]6[C@@H]5CC[C@]5(C)[C@@H](C7=CC(=O)OC7)CC[C@]65O)C4)O[C@@H]3C)O[C@@H]2C)C[C@H](O)[C@@H]1O` [DIGITOXIN], the LD50 in [11] lay within 10 to 80 mg/kg.

Consider `CC(C)=CCC[C@]1(C)C=Cc2c(O)c3c(c(CC=C(C)C)c2O1)O[C@]12C(=C[C@@H]4C[C@H]1C(C)(C)O[C@@]2(C/C=C(/C)C(=O)O)C4=O)C3=O` [GAMBOGIC ACID], for which the pIC50 in the data set with HL-60 was 6.77. Moreover, the “fold change (FC)” value with MDA-MB-231 came out at 1.31.

Regarding `C=C(C)C(=O)O[C@H]1C[C@@]2(C)OC(=CC2=O)/C(CO)=C\[C@H]2OC(=O)C(=C)[C@H]12` [GOIAZENSOLIDE], the pIC50 in [12] and in data set [13] was 6.00 each time.

Regarding `COc1cc2c(OC)c3c(c(-c4ccc5c(c4)OCO5)c2cc1OC)C(=O)OC3` [JUSTICIDIN A], in the data set on HT-3, the concentration for half-maximal inhibition (IC50) is 0.0018 µg/mL (≈ 0.00456 µM).

Turning to `COc1c(O)cc2oc3cc(O)c(CC=C(C)C)c(O)c3c(=O)c2c1CC=C(C)C` [MANGOSTIN], the pIC50 is 3.80 in the data set with WRL68 and 4.71 in the data set with SK-HEP1.

What is called pIC50 is the negative decadic logarithm of the IC50, by convention in mol/L. One may read the IC50 as the concentration that gives 50% inhibition. Broadly, the LD50 is the dose at which mortality reaches 50%. A lower LD50 goes with greater toxicity.
